From patent US12653776B2, “Methods of treatment of cancer by continuous infusion of coenzyme Q10” (priority 2013, dated 2026)
Like-named read-outs stand apart in the source and are kept apart here.

What was measured:
[1] = system: cancer cell lines HT-29, A549, Hep3B, MDA-MB231, SkBr-3, MCF7, MiaPaCa-2, SKOV-3, PC-3; assay: Cancer cell line viability in vitro; format: cell-based; settings: 100 μM coenzyme Q10; evident as early as 24 hours, increased progressively between 48 and 72 hours; all cell lines tested
Protocol: Various cancer cell lines were treated with coenzyme Q10 at 100 μM concentration to determine the effect on cancer cell viability. The cancer cell lines tested were HT-29 (colon), A549 (lung), Hep3B (liver), MDA-MB231 (breast), SkBr-3 (breast), MCF7 (breast), MiaPaCa-2 (pancreas), SKOV-3 (ovary), and PC-3 (prostate). Cell viability was measured between 24 and 72 hours. […] For example. […] The text at the bottom of the graph in FIG. 6 represents the gene mutation and mutation rate for each cell line. For example, the HT-29 cell line contains the APC mutation with a mutation rate of 126.

[2] = Protocol: In the Phase 1a portion of the trial, patients who meet eligibility parameters receive 2 consecutive 48-hour infusions of coenzyme Q10 twice weekly on Monday and Wednesday (i.e., Days 1, 3, 8, 10, 15, 17, 22, and 24), essentially receiving coenzyme Q10 treatment for 96 hours per week of each 28-day cycle. At each dose level of Arm 1 and Arm 2, patients are treated for either 8 hours at minimum of outpatient monitoring or inpatient monitoring for the first 24-hrs of the first infusion of Cycle 1. All other treatments are administered in an outpatient setting. Dose limiting toxicities are assessed during Cycle 1.
The study is a standard 3+3 dose escalation design with the dose escalated in successive cohorts of 3 to 6 patients each. Toxicity at each dose level is graded according to National Cancer Institute Common Terminology Criteria for Adverse Events (CTCAE v4.02). Safety oversight is provided by the Cohort Review Committee (CRC). The CRC reviews and confirms all DLTs and monitor safety throughout the study (including Arm 2).
The 2 doses are administered over 4 consecutive days, i.e., the first dose on Monday-Wednesday and the second dose on Wednesday-Friday of each week. The study drug is administered undiluted via a central venous access device and the infusion rate is controlled by a programmable ambulatory infusion pump such as the CADD Prizm VIP (model 6101) ambulatory pump.
At each dose level of Arm 1 and Arm 2, patients are treated for either 8 hours at minimum of outpatient monitoring or inpatient monitoring for the first 24-hrs of the first infusion of Cycle 1. Patients are monitored for dose-limiting toxicity (DLT) or an AE that requires prolonged hospitalization. If no reaction to coenzyme Q10 develops, the patient will be discharged.
For the second dose of each week (i.e., on Days 3, 10, 17, and 24 of the cycle) the total dose volume are given over 48 hours with no loading dose as indicated in Table 6 below. Coenzyme Q10 Nanosuspension for Injection Dose Cohorts (Arm 1; Monotherapy).

solid tumors = assay: Phase 1a/b study, 96-hour continuous IV infusion: tumor response and PET; format: in vivo, human
Protocol: Assessments of the antitumor activity of coenzyme Q10 is performed at the end of Cycle 2 and every 2 cycles thereafter using standard techniques such as computerized tomography (CT) or magnetic resonance imaging (MRI) for patients with measurable disease. Response is evaluated using Response Evaluation Criteria in Solid Tumors (RECIST) v1.1. Patients who experience no unacceptable toxicity or disease progression, may receive additional 28-day cycles for up to 1 year on Arm 1 or 2. Patients on Arm 1 who progress may elect to continue coenzyme Q10 treatment in combination with gemcitabine, 5-FU, or docetaxel at the treating physician's discretion. Once a dose level of coenzyme Q10 monotherapy is evaluated and the CRC determines it safe to escalate to the next dose level, Cohort 1 of Treatment Arm 2 of coenzyme Q10 in combination with chemotherapy will open to accrual. Cohort 1 of Arm 2 patients are enrolled onto one of 3 chemotherapies, gemcitabine, 5-FU, or docetaxel. Cycle 1 of combination therapy (Arm 2) is 6 weeks in duration for patients with coenzyme Q10 administered twice weekly on Mondays and Wednesday for 6 weeks and chemotherapy administered on Fridays, Days 19, 26 and 33. Cycles 2-12 are 4 weeks in duration with coenzyme Q10 administered twice weekly on Mondays and Wednesdays for 4 weeks and chemotherapy administered on Fridays, Days 5, 12 and 19. Dose limiting toxicities are assessed during Cycle 1. Response is assessed after Cycle 2 (10 weeks) and responders who continue onto Cycles 2-12 are assessed every 2 cycles (8 weeks). […] Patients on Arm 2 who progress on one type of chemotherapy may not switch to one of the other chemotherapy agents in combination with coenzyme Q10. However, if the chemotherapy component (i.e., 5-FU, gemcitabine, or docetaxel) of combination therapy is discontinued due to chemotherapy-related toxicity, patients may continue to receive coenzyme Q10 as monotherapy.
(§1) Blood samples for pharmacokinetic and pharmacodynamic analyses are collected during each cycle of monotherapy and combination therapy. Urine samples for determination of coenzyme Q10 renal clearance are collected only during Cycle 1 of monotherapy and combination therapy. A PET scan is performed within 2 weeks prior to starting treatment and after 2 weeks of coenzyme Q10 treatment, and 8 weeks of treatment on Arm 1 or 10 weeks of treatment on Arm 2. Core biopsies (2-3) are performed at the time of baseline and Week 2 PET scan for patients who opt-in to participate in these exploratory studies.

[3] = Phase 1a/b study, 96-hour continuous IV infusion: pharmacokinetics; format: in vivo, human
Protocol: as §1

AML or ALL = assay: Phase 1a/b study, 18 day continuous infusion in relapsed/refractory AML or ALL; settings: at the end of the study
Protocol: This study is conducted in the inpatient setting for the first 10 patients enrolled on monotherapy to closely monitor the coagulation profile, gain experience and collect safety data during the first full cycle of therapy (21 days) and at least 30 days of post-dosing follow-up Platelet count and coagulation parameters are obtained every day in the inpatient setting. […] Treatment may continue in either the inpatient and/or outpatient setting for subsequent patients enrolled on study. Platelet count and coagulation are monitored at least 3 times/week in the outpatient setting and daily in the inpatient setting.
Each cycle of monotherapy is 21 days in length. […] Each cycle of combination therapy is 28 days in length. […] Patients who experience a DLT during cycle 1 of monotherapy or cycle 1 of combination therapy are discontinued.
On Day 1 of each cycle (i.e., Monday) the dose consists of an accelerated rate of infusion of 25% of the total dose volume over 1 hour with the remaining 75% of the dose volume infused over 23 hours. Subsequent daily doses (Days 2 through 18) are infused uniformly over 24 hours (no accelerated rate in the first hour). […] The principal investigator will consult with the Medical Monitor and the Chair of the DSMB to determine the appropriate dose level for each patient.

[4] = combination with gemcitabine, Dose level 1 (50 mg/kg)
[5] = Patient 1, 66 mg/kg week monotherapy, end of two cycles

## coenzyme Q10
[1]
  cell viability: decrease in cell viability
[2]; combination with 5-Fluorouracil, Dose level 1 (50 mg/kg)
  safety issues: No 5FU-related issued
[2]; combination with 5-Fluorouracil, Dose level 2 (66 mg/kg)
  dose level evaluation: Dose level cleared
[2]; combination with docetaxel, Dose level 1 (50 mg/kg)
  safety issues: No docetaxel-related issued
[2]; combination with docetaxel, Dose level 2 (66 mg/kg)
  issues or DLTs: No issues or DLTs
[2]; combination with docetaxel, Dose level 3 (kg mg/kg), evaluation ongoing
  issues or DLTs: No issues or DLTs
[2]; [4]
  dose-limiting toxicity (DLT): no DLT
  thrombocytopenia (gemcitabine-related adverse event): Mild to moderate thrombocytopenia
[2]; continuous infusion protocol
  bleeding events: No bleeding events were reported
[2]; continuous infusion protocol with aggressive pre-loading or treatment with Vitamin K
  coagulation abnormalities: minimal coagulation abnormalities
[2]; current dose levels, continuous infusion
  overall safety: safe at the current levels
[2]; monotherapy Dose Level 1 (66 mg/kg), 9 subjects, grade 3 GGT
  dose-limiting toxicity (DLT): 1 DLT
[2]; monotherapy Dose Level 2 (88 mg/kg), 4 subjects
  dose-limiting toxicity (DLT): 0 DLT
[2]; monotherapy Dose Level 3 (110 mg/kg), 4 subjects, evaluation ongoing
  dose-limiting toxicity (DLT): 0 DLT
[2]; monotherapy and combination therapy, initial results
  safety and tolerability: safe and well tolerated
[2]; no clinical significance
  triglycerides: Transient elevation of triglycerides
[2]; vs four hour infusion at higher rate, expected at the end of the ongoing study
  adverse events with increased infusion duration: decrease adverse events
Solid tumors; Eight out of twelve patients, after dose level 2
  patients evaluable for efficacy showing various responses: 75%
Solid tumors; Patient 1, 66 mg/kg week monotherapy
  multiomics tissue analysis: switch from anaerobic driven markers to oxidative phosphorylation
Solid tumors; [5]
  cervical lymph node metastases: disappearance of cervical lymph node metastases
  size of the target lesion: minimal changes
Solid tumors; Patient 1, gastric adenocarcinoma, 66 mg/kg week monotherapy, end of two cycles
  decrease on PET-SUV: 40%
Solid tumors; Patient 1 after switch to combination arm adding weekly docetaxel
  PET/CT response: again showed metabolic responses by PET/CT
Solid tumors; Patient 2, gemcitabine + coenzyme Q10 66 mg/kg, Week 10 PET, from 2.3
  Max SUV, Right iliac bone lesion: 1.9
Solid tumors; Patient 2, gemcitabine + coenzyme Q10 66 mg/kg, Week 10 PET, from 3.5
  Max SUV, Omentum lesion 2: 2.8
Solid tumors; Patient 2, gemcitabine + coenzyme Q10 66 mg/kg, lesion in the abdomen
  non-target lesion response: complete response in one of the non-target lesions
Solid tumors; Patient 2, metastatic bladder cancer, gemcitabine + coenzyme Q10 66 mg/kg, Week 10 PET, previous value 1.7
  Max SUV, Omentum lesion 1: 0.8
Solid tumors; expected at the end of the ongoing study
  outcomes by RECIST criteria: clinically relevant outcomes
Solid tumors; gastric, pancreatic, colon, head and neck, NSCLC, mesothelioma, TN breast cancer
  antitumor activity in a variety of solid tumors: showed early activity at low doses
[3]; Patient 1, gastric adenocarcinoma, dose level 1 (66 mg/kg week)
  increase in the intratumor concentration of Coenzyme Q11: 15 fold
[3]; initial tested doses
  pharmacokinetics: linear distribution
AML or ALL; e.g., decreased tumor burden
  outcomes by standard criteria: clinically relevant outcomes
AML or ALL; vs four hour infusion at higher rate
  adverse events with increased infusion duration: decrease adverse events
